Laboratory results taken from patent US20260224588A1, “BENZODIAZEPINONE-DERIVED INHIBITORS OF EGFR AND HER2” (The Research Foundation for the State University of New York, priority 2023, published 2026).

Key:
Assay in all cases: KINOMEscan
Type in all cases: binding
Settings in all cases: 1 μM of compound 4; read-out: POC
[1] = biological target: T1, EPHA8 (Homo sapiens, UniProt P29322)
T1 construct: purchased Eurofins DiscoverX (KINOMEscan service)

[2] = biological target: BRK (Homo sapiens, UniProt Q13882)
[3] = biological target: T2, RPS6KA5(Kin.Dom.1-N-terminal) (Homo sapiens, UniProt O75582)
T2 construct: RPS6KA5(Kin.Dom.1-N-terminal); purchased Eurofins DiscoverX Corporation (KINOMEscan screening service)

[4] = biological target: AURKC (Homo sapiens, UniProt Q9UQB9)
[5] = biological target: ANKK1 (Homo sapiens, UniProt Q8NFD2)
[6] = biological target: PKN2 (Homo sapiens, UniProt Q16513)
[7] = biological target: T3, GSK3B (Homo sapiens, UniProt P49841)
T3 construct: purchased Eurofins DiscoverX Corporation

[8] = biological target: T4, ERK1 (Homo sapiens, UniProt P27361)
T4 construct: purchased Eurofins DiscoverX Corporation

[9] = biological target: T5, FLT3(N841I) (Homo sapiens, UniProt P36888, N841I)
T5 construct: purchased Eurofins DiscoverX Corporation

[10] = biological target: MYO3A (Homo sapiens, UniProt Q8NEV4)
[11] = biological target: MEK1 (Homo sapiens, UniProt Q02750)
[12] = biological target: T6, TYK2(JH1domain-catalytic) (Homo sapiens, UniProt P29597)
T6 construct: TYK2(JH1domain-catalytic); purchased Eurofins DiscoverX
T6 sequence (P29597 897-1176 limits assumed): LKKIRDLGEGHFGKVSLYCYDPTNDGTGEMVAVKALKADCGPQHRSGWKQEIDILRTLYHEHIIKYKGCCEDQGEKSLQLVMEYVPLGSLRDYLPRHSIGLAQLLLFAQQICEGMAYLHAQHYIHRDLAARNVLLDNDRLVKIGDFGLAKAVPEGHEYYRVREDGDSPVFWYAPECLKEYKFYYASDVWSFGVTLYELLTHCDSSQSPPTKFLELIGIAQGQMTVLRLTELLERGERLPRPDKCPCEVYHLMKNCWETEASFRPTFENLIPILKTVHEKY

[13] = biological target: ARK5 (Homo sapiens, UniProt O60285)
Sequence of ARK5 (O60285 whole entry): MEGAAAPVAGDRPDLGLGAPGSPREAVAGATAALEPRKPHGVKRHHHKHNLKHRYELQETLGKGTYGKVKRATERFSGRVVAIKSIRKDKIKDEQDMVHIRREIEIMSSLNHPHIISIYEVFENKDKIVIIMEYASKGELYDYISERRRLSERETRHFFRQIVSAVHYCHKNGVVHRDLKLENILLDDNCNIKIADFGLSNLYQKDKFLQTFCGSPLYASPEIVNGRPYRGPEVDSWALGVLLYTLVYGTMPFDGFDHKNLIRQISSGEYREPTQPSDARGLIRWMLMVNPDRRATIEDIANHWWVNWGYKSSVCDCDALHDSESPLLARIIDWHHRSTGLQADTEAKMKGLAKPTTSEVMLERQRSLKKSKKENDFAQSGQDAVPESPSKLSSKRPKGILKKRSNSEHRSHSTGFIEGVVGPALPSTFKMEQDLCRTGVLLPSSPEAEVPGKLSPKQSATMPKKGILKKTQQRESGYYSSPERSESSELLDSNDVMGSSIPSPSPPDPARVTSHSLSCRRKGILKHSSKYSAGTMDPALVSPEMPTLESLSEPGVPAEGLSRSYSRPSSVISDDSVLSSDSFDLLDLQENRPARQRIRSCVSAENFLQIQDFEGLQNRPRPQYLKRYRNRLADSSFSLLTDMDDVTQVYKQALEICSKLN

[14] = biological target: BMPR1B (Homo sapiens, UniProt O00238)
[15] = biological target: MST3 (Homo sapiens, UniProt Q9Y6E0)
Sequence of MST3 (Q9Y6E0 whole entry): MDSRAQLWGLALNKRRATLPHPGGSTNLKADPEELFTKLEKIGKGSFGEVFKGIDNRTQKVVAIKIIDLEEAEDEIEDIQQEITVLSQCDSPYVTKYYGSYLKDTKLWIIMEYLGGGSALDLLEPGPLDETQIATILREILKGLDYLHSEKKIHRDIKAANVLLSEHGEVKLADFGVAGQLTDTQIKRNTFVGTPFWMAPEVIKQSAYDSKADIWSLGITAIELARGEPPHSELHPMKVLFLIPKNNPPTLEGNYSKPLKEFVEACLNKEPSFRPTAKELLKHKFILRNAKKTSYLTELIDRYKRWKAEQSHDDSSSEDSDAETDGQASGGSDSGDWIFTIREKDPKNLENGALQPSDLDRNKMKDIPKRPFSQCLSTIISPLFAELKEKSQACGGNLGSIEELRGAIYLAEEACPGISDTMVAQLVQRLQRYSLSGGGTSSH

[16] = biological target: T7, RSK1(Kin.Dom.1-N-terminal) (Homo sapiens, UniProt Q15418)
T7 construct: RSK1(Kin.Dom.1-N-terminal); purchased Eurofins DiscoverX Corporation (KINOMEscan screening service)

[17] = biological target: T8, FLT3(D835H) (Homo sapiens, UniProt P36888, D835H)
T8 construct: purchased Eurofins DiscoverX Corporation

[18] = biological target: JAK1(JH1domain-catalytic) (Homo sapiens, UniProt P23458)
[19] = biological target: CTK (Homo sapiens, UniProt P42679)
Sequence of CTK (P42679 whole entry): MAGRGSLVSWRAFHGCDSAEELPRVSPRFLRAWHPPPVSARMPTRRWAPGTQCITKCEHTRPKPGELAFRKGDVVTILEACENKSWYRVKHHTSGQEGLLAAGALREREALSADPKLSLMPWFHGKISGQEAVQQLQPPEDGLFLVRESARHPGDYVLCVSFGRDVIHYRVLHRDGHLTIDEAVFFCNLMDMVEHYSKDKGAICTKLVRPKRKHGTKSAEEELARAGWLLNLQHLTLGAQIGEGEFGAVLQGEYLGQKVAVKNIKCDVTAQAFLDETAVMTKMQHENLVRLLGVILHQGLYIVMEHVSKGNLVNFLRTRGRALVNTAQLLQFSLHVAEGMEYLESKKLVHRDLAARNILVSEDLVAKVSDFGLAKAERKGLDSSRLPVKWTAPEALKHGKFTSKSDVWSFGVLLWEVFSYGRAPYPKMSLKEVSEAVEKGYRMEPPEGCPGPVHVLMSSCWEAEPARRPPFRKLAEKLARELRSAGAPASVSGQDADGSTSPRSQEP

[20] = biological target: T9, GRK4 (Homo sapiens, UniProt P32298)
T9 construct: purchased Eurofins DiscoverX Corporation

[21] = biological target: MKNK1 (Homo sapiens, UniProt Q9BUB5)
[22] = biological target: T10, YSK4 (Homo sapiens, UniProt Q56UN5)
T10 construct: purchased Eurofins DiscoverX

[23] = biological target: KIT(L576P) (Homo sapiens, UniProt P10721, L576P)
[24] = biological target: PIK3CA(H1047Y) (Homo sapiens, UniProt P42336, H1047Y)
[25] = biological target: MAP4K2 (Homo sapiens, UniProt Q12851)
Sequence of MAP4K2 (Q12851 whole entry): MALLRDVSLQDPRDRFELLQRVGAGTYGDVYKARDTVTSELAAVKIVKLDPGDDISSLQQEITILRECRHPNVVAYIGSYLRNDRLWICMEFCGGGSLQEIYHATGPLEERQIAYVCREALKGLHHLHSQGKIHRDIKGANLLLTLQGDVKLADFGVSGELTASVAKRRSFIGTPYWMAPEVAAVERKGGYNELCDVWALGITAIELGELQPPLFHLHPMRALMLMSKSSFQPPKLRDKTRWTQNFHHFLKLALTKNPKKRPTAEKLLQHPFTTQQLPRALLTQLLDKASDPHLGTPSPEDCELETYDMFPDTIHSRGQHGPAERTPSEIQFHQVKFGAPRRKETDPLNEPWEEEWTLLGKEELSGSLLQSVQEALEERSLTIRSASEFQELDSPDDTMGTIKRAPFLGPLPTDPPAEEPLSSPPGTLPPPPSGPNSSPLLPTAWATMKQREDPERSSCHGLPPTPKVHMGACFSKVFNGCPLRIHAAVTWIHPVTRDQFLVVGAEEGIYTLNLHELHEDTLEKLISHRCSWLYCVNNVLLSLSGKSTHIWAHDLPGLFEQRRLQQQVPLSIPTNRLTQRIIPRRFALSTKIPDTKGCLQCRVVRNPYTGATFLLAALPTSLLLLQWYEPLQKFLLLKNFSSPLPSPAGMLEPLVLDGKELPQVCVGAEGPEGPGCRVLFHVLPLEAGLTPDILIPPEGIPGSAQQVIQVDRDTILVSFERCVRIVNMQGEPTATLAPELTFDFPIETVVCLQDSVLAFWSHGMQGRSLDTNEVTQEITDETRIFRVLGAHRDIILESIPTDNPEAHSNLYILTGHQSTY

[26] = biological target: PIK3CA(C420R) (Homo sapiens, UniProt P42336, C420R)
[27] = biological target: T11, HIPK3 (Homo sapiens, UniProt Q9H422)
T11 construct: purchased Eurofins DiscoverX Corporation

[28] = biological target: T12, PAK6 (Homo sapiens, UniProt Q9NQU5)
T12 construct: purchased Eurofins DiscoverX Corporation (KINOMEscan)
T12 sequence (Q9NQU5 whole entry): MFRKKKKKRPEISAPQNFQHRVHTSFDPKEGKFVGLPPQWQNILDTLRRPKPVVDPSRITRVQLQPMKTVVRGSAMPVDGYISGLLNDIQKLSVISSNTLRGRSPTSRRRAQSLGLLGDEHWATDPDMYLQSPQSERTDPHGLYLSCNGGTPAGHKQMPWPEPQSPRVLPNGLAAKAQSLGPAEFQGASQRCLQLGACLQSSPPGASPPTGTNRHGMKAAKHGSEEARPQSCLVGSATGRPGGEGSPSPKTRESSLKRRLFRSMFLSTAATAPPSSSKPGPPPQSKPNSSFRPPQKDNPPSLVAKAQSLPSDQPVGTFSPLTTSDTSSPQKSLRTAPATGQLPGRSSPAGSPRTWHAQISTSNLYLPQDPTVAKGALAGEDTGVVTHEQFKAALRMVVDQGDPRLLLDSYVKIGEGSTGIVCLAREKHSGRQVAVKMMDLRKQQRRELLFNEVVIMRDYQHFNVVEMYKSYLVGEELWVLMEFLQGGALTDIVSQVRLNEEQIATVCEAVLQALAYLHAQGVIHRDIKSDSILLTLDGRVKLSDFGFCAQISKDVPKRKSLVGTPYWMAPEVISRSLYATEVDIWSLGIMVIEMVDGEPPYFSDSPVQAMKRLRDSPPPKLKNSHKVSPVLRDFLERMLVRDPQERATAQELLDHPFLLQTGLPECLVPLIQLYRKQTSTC

[29] = biological target: MST1R (Homo sapiens, UniProt Q04912)
Sequence of MST1R (Q04912 25-1400): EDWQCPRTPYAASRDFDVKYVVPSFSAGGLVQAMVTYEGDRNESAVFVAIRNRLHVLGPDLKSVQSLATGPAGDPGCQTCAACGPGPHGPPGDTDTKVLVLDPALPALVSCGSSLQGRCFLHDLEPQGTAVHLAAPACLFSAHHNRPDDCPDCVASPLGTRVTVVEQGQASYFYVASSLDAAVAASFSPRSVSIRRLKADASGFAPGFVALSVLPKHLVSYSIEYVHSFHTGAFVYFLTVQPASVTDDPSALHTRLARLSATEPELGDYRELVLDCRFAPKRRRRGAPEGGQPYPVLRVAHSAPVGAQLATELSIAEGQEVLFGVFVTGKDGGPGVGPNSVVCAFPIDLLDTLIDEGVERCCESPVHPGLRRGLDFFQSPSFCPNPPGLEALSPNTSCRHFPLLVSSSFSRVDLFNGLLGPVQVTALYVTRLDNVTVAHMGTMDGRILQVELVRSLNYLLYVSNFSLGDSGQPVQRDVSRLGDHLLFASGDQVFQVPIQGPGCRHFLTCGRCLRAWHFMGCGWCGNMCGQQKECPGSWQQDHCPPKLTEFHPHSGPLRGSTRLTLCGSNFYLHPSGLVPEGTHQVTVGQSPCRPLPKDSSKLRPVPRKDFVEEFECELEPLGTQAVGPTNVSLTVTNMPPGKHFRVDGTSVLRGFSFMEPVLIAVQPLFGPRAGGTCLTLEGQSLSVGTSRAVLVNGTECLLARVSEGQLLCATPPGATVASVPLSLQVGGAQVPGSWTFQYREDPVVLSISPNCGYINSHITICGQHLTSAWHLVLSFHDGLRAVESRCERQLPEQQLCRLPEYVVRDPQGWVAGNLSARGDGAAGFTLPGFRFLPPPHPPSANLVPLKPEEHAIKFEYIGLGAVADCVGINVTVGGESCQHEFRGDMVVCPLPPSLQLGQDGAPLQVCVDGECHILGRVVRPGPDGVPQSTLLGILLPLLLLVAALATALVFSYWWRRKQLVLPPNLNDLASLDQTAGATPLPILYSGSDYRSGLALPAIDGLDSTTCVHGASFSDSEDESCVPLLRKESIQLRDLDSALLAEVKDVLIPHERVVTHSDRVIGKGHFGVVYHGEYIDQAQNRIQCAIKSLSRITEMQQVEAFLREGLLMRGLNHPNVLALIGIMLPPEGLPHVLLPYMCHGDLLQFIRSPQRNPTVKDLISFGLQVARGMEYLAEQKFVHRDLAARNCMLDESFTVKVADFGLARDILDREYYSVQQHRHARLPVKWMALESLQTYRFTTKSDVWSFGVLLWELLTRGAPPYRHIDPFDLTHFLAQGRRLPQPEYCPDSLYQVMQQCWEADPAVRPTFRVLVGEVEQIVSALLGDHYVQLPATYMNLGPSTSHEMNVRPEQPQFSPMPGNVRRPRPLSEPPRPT

[30] = biological target: T13, RSK4(Kin.Dom.1-N-terminal) (Homo sapiens, UniProt Q9UK32)
T13 construct: RSK4(Kin.Dom.1-N-terminal); purchased Eurofins DiscoverX (KINOMEscan service)
T13 sequence (Q9UK32 73-330 limits assumed): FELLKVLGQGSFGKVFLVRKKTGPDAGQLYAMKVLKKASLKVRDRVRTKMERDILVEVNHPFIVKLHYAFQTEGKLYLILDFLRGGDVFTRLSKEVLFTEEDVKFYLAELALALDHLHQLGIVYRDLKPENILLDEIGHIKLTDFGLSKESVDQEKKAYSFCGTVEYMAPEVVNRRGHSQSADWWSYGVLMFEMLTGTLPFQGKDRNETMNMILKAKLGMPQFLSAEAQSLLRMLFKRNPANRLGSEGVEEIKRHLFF

[31] = biological target: T14, RSK2(Kin.Dom.2-C-terminal) (Homo sapiens, UniProt P51812)
T14 construct: RSK2(Kin.Dom.2-C-terminal); purchased Eurofins DiscoverX Corporation (KINOMEscan screening service)

[32] = biological target: PLK1 (Homo sapiens, UniProt P53350)
[33] = biological target: ASK2 (Homo sapiens, UniProt O95382)
[34] = biological target: IRAK4 (Homo sapiens, UniProt Q9NWZ3)
[35] = biological target: T15, EPHB6 (Homo sapiens, UniProt O15197)
T15 construct: purchased Eurofins DiscoverX (KINOMEscan service)

[36] = biological target: T16, EGFR(L861Q) (Homo sapiens, UniProt P00533, L861Q)
T16 construct: purchased Eurofins DiscoverX (KINOMEscan service)

In the case of `C=CC(=O)Nc1ccc(OC)c(Nc2cc(-c3[nH]c(CC)nc3-c3cccc(NC(=O)c4cccc5c4NC(=O)c4ccccc4N5)c3)ccn2)c1` [Compound 4, N-(3-(5-(2-((5-Acrylamido-2-methoxyphenyl)amino)pyridin-4-yl)-2-ethyl-1H-imidazol-4-yl)phenyl)-11-oxo-10,11-dihydro-5H-dibenzo[b,e][1,4]diazepine-9-carboxamide], the remaining binding at 1 µM [1] is reported as 98%, the remaining binding at 1 µM [2] is reported as 96% and the remaining binding at 1 µM [3] is reported as 83%. The remaining binding at 1 µM [4] was 100%, the remaining binding at 1 µM [5] was 87% and the remaining binding at 1 µM [6] was 100%. For the same compound, the remaining binding at 1 µM [7] was 100%, the remaining binding at 1 µM [8] was 99% and the remaining binding at 1 µM [9] was 97%. The remaining binding at 1 µM [10] was 14%, the remaining binding at 1 µM [11] was 100% and the remaining binding at 1 µM [12] was 91%. For the same compound, the remaining binding at 1 µM [13] was 100%, the remaining binding at 1 µM [14] was 100% and the remaining binding at 1 µM [15] was 73%. The remaining binding at 1 µM [16] was 4.7%, the remaining binding at 1 µM [17] was 92% and the remaining binding at 1 µM [18] was 91%. The remaining binding at 1 µM [19] was 54%, the remaining binding at 1 µM [20] was 100% and the remaining binding at 1 µM [21] was 100%. It also gave a remaining binding at 1 µM [22] of 88%, a remaining binding at 1 µM [23] of 84% and a remaining binding at 1 µM [24] of 66%. For the same compound, the remaining binding at 1 µM [25] was 36%, the remaining binding at 1 µM [26] was 66% and the remaining binding at 1 µM [27] was 100%. It also gave a remaining binding at 1 µM [28] of 93%, a remaining binding at 1 µM [29] of 85% and a remaining binding at 1 µM [30] of 100%. The remaining binding at 1 µM [31] was 100%, the remaining binding at 1 µM [32] was 50% and the remaining binding at 1 µM [33] was 100%. For the same compound, the remaining binding at 1 µM [34] was 43%, the remaining binding at 1 µM [35] was 100% and the remaining binding at 1 µM [36] was 2.7%.
